In patent publication EP0378285A1, “Substituted alkenes, processes for their preparation and their use as pesticides” (priority 1989, dated 1990):

Tested on: Aphis fabae
Assay: Activity in prophylactic treatment of leaf discs against Aphis fabae
Format: in vivo
Details: Aphis fabae, foliar, 48 h; 0.1% aqueous preparation; field bean leaf discs infested with wingless stages; 2 days at 25 C; percentage mortality, Abbott's method
Experimental: From the primary leaf of field beans (Phaseolus vulgaris nanus Aschers.), 24 mm diameter discs were cut. Some of these were treated with a 0.1% aqueous preparations of compounds of the invention and these along side untreated discs were placed on filter papers with the underside of the leaves turned upwards. After drying the test pieces, they were each infested with wingless stages of Aphis fabae (approx 100 per leaf piece). The experiment was replicated 3 times. The leaves were kept on wet filter papers for 2 days at 25 C and 16 hours light per day. The percentage mortality was then estimated and the activity calculated using Abbott's method in comparison with the untreated controls.

| Compound | mortality at 0.1 % [%] |
| --- | --- |
| C=C(C)C(C)(C)COCc1cccc(Oc2ccc(Cl)cc2)c1 [Example 21, 4-[3-(4-chlorophenoxy)benzyloxy]-2,3,3-trimethyl-1-butene] | ≥ 80 |
| CC(C)(COCc1ccc(F)c(Oc2ccccc2)c1)C1=CCCCC1 [Example 2, 2-(Cyclohexen-1-yl)-2-methyl-1-(4-fluoro-3-phenoxybenzyloxy)propane] | ≥ 80 |
| C=C(C)C(C)(C)CCCc1cccc(Oc2ccccc2)n1 [Example 18, 6-(6-phenoxypyridin-2-yl)-2,3,3-trimethyl-1-hexene] | ≥ 80 |
| C=C(I)C(C)(C)COCc1ccc(F)c(Oc2ccccc2)c1 [Example 60, 3,3-dimethyl-2-iodo-4-(4-fluoro-3-phenoxybenzyloxy)-1-butene] | ≥ 80 |
| C=C(C)C1(COCc2ccc(F)c(Oc3ccccc3)c2)CC1 [Example 51, 2-(4-fluoro-3-phenoxybenzyloxy-methyl)-2-isopropenylcyclopropane] | ≥ 80 |
| C=C(Br)C(C)(C)COCc1cccc(Oc2ccccc2)c1 [Example 7, 2-bromo-3,3-dimethyl-4-(3-phenoxy-benzyloxy)-1-butene] | ≥ 80 |

Same assay, conditions: aphis fabae, in vivo, 48 h

| Compound | activity [%] |
| --- | --- |
| C=C(C(C)C)C(C)(C)COCc1ccc(F)c(Oc2ccccc2)c1 [Example 26] | ≥ 80 |

Tested on: brown rice-hoppers (Niliparvata lugens Stal)
Assay: Use Example B: activity in prophylactic treatment of leaves against brown rice-hoppers
Format: in vivo
Details: 48 h, read-out: activity
Text: Activity in prophylactic treatment of leaves against brown rice-hoppers (Niliparvata lugens Stal)
Rice seedlings (Oryzae sativa L.) in the two leaf stage (about 10 per polystyrene pot of size 6.5 x 6.5 cm) were either untreated or […] until dripping wet, with an aqueous preparation containing 0.1 % of active material. After drying the sprayed leaves, a transparent cylinder was placed over each pot and through an opening, about 30 brown rice-hoppers (Niliparvata lugens) in the 4-5 stage, anaesthetised with carbon dioxide, were introduced into each pot. After closing the opening with a fine mesh screen, the pots were kept for 2 days at 28° C and 16 hours/day of light in the glasshouse, the amount of dead hoppers was determined. The percentage mortality was then estimated and the activity calculated using Abbott's method in comparison with the untreated controls.

| Compound | mortality at 0.1 % [%] |
| --- | --- |
| C=C(C)C(C)(C)COCc1cccc(Oc2ccc(Cl)cc2)c1 [Example 21, 4-[3-(4-chlorophenoxy)benzyloxy]-2,3,3-trimethyl-1-butene] | ≥ 80 |
| C=C(I)C(C)(C)CCCc1cccc(Oc2ccccc2)c1 [Example 63, 3,3-dimethyl-2-iodo-6-(3-phenoxy-phenyl)-1-hexene] | ≥ 80 |
| C=C(c1ccccc1)C(C)(C)COCc1ccc(F)c(Oc2ccccc2)c1 [Example 14, 3,3-dimethyl-4-(4-fluoro-3-phenoxy-benzyloxy)-2-phenyl-1-butene] | ≥ 80 |
| CC(C)(COCc1ccc(F)c(Oc2ccccc2)c1)C1=CCCCC1 [Example 2, 2-(Cyclohexen-1-yl)-2-methyl-1-(4-fluoro-3-phenoxybenzyloxy)propane] | ≥ 80 |
| C=C(C)C(C)(C)COCc1cccc(Oc2cccc(C(F)(F)F)c2)c1 [Example 24, 4-[3-(3-trifluoromethylphenoxy)-benzyloxy]-2,3,3-trimethyl-1-butene] | ≥ 80 |
| C=C(C)C(C)(C)CCCc1cccc(Oc2ccccc2)n1 [Example 18, 6-(6-phenoxypyridin-2-yl)-2,3,3-trimethyl-1-hexene] | ≥ 80 |
| C=C(I)C(C)(C)COCc1ccc(F)c(Oc2ccccc2)c1 [Example 60, 3,3-dimethyl-2-iodo-4-(4-fluoro-3-phenoxybenzyloxy)-1-butene] | ≥ 80 |
| C=C(C)C1(COCc2ccc(F)c(Oc3ccccc3)c2)CC1 [Example 51, 2-(4-fluoro-3-phenoxybenzyloxy-methyl)-2-isopropenylcyclopropane] | ≥ 80 |
| CC(C)(COCc1ccc(F)c(Oc2ccccc2)c1)C1=CCOCC1 [Example 44, 1-(4-fluoro-3-phenoxybenzyloxy)-2-methyl-2-(4-oxacyclohexen-1-yl)propane] | ≥ 80 |
| C=C(C(C)C)C(C)(C)COCc1cccc(Oc2ccccc2)c1 [Example 25, 3-methylene-5-(3-phenoxy-benzyloxy)-2,4,4-trimethylpentane] | ≥ 80 |
| C=C(C)C(C)(C)COCc1cccc(Oc2ccccc2)n1 [Example 17, 4-(6-phenoxypyridin-2-ylmethoxy)-2,3,3-trimethyl-1-butene] | ≥ 80 |

Same assay, conditions: brown rice-hopper, in vivo, 48 h

| Compound | activity [%] |
| --- | --- |
| C=C(C)C(C)(C)CCCc1cccc(Oc2ccccc2)c1 [Example 1, 6-(3-Phenoxyphenyl)-2,3,3,-trimethyl-1-hexene] | ≥ 80 |

Tested on: two spotted mite (Tetranychus urticae Koch)
Assay: Use Example C: activity in the prophylactic treatment of feed against the two spotted mite
Format: in vivo
Details: foliar, 0.1 % aqueous preparation, field bean leaf discs, adults and eggs counted after 3 days at 25 C, larvae after a further 7 days, Abbott's method
Experimental: Activity in the prophylactic treatment of feed against the two spotted mite (Tetranychus urticae Koch)
From the primary leaf of field beans (Phaseolus vulgaris nanus Aschers.) 14 mm diameter discs were cut. Some of these were treated with a 0.1 % aqueous preparations of compounds of the invention and these along side untreated discs were placed on filter papers with the underside of the leaves turned upwards. After drying the test pieces, they were each infested with six adult female Tetranychus urticae and maintained for 3 days at 25 C and 16 hours light per day. The experiment was replicated 4 times. Dead and alive adults were then counted and removed. Similarly the number of eggs laid were counted. After a further 7 days, the number of living larvae were counted, the activity calculated using Abbott's method in comparison with the untreated controls.

| Compound | mortality at 0.1 % [%] |
| --- | --- |
| C=C(C)C(C)(C)COCc1cccc(Oc2ccc(Cl)cc2)c1 [Example 21, 4-[3-(4-chlorophenoxy)benzyloxy]-2,3,3-trimethyl-1-butene] | 80 to 100 |
| C=C(C)C(C)(C)CCCc1cccc(Oc2ccccc2)n1 [Example 18, 6-(6-phenoxypyridin-2-yl)-2,3,3-trimethyl-1-hexene] | 80 to 100 |
| C=C(c1ccccc1)C(C)(C)COCc1cccc(-c2ccccc2)c1C [Example 15, 3,3-dimethyl-4-(2-methyl-3-phenyl-benzyloxy)-2-phenyl-1-butene] | 80 to 100 |
| C=C(I)C(C)(C)COCc1ccc(F)c(Oc2ccccc2)c1 [Example 60, 3,3-dimethyl-2-iodo-4-(4-fluoro-3-phenoxybenzyloxy)-1-butene] | 80 to 100 |
| C=C(c1ccccc1)C(C)(C)COCc1c(F)c(F)c(F)c(F)c1F [Example 61, 3,3-dimethyl-4-(2,3,4,5,6-pentafluoro-benzyloxy)-2-phenyl-1-butene] | 80 to 100 |
| C=C(Br)C(C)(C)COCc1cccc(Oc2ccccc2)c1 [Example 7, 2-bromo-3,3-dimethyl-4-(3-phenoxy-benzyloxy)-1-butene] | 80 to 100 |

Tested on: corn rootworm (Diabrotica undecimpunctata)
Assay: Use Example D: activity against eggs/larvae of the corn rootworm
Format: in vivo
Details: Diabrotica undecimpunctata, 168 h; aqueous emulsion 0.1%, 0.2 ml pipetted into soil; 7 days at 25 C; death of eggs or newly hatched larvae
Experimental: Activity against eggs/larvae of the corn rootworm (Diabrotica undecimpunctata)
The compounds of the invention were made up as aqueous emulsions at a concentration of 0.1%. Into the soil in polystyrene petri dishes, containing maize seedlings (1 seedling/dish) and ca. 50 eggs of the corn rootworm (Diabrotica undecimpunctata) were pipetted 0.2 ml of these preparations. The closed dishes were left at 25 C under extended daylight conditions for 7 days. The criterion for judging the activity was the death of eggs or newly hatched larvae at the end of the test.

| Compound | mortality at 0.1 % [%] |
| --- | --- |
| C=C(C)C(C)(C)COCc1cccc(Oc2ccc(Cl)cc2)c1 [Example 21, 4-[3-(4-chlorophenoxy)benzyloxy]-2,3,3-trimethyl-1-butene] | 80 to 100 |
| CC(C)(COCc1ccc(F)c(Oc2ccccc2)c1)C1=CCCCC1 [Example 2, 2-(Cyclohexen-1-yl)-2-methyl-1-(4-fluoro-3-phenoxybenzyloxy)propane] | 80 to 100 |
| C=C(C)C(C)(C)CCCc1cccc(Oc2ccccc2)n1 [Example 18, 6-(6-phenoxypyridin-2-yl)-2,3,3-trimethyl-1-hexene] | 80 to 100 |
| C=C(C)C1(COCc2ccc(F)c(Oc3ccccc3)c2)CC1 [Example 51, 2-(4-fluoro-3-phenoxybenzyloxy-methyl)-2-isopropenylcyclopropane] | 80 to 100 |
| C=C(C)C(C)(C)COCc1cccc(Oc2ccccc2)n1 [Example 17, 4-(6-phenoxypyridin-2-ylmethoxy)-2,3,3-trimethyl-1-butene] | 80 to 100 |
| C=C(Br)C(C)(C)COCc1cccc(Oc2ccccc2)c1 [Example 7, 2-bromo-3,3-dimethyl-4-(3-phenoxy-benzyloxy)-1-butene] | 80 to 100 |
| CC(C)(COCc1cccc(Oc2ccccc2)c1)C1=CCCCC1 [Example 8, 2-(cyclohexen-1-yl)-2-methyl-1-(3-phenoxybenzyloxy)propane] | 80 to 100 |

Same assay, conditions: corn rootworm, in vivo, 168 h

| Compound | activity |
| --- | --- |
| C=C(C(C)C)C(C)(C)COCc1ccc(F)c(Oc2ccccc2)c1 [Example 26] | 80-100% |
| C=C(C)C(C)(C)CCCc1cccc(Oc2ccccc2)c1 [Example 1, 6-(3-Phenoxyphenyl)-2,3,3,-trimethyl-1-hexene] | 80-100% |

Tested on: cotton bollworm (Heliothis viriscens)
Assay: whole plant or invertebrate
Format: in vivo
Details: 48 h, read-out: activity
Experimental: Activity against larvae (L1) of the cotton bollworm (Heliothis viriscens)
Compounds of the invention were made up as aqueous preparations at a concentration of 0.1 %. Into these, feed material was dipped for 2 seconds. After drying the feed material was put into into polystyrene petri dishes. After an hour, 10 L1 of the cotton bollworm (Heliothis viriscens) were counted into the dishes. The closed dishes were left for up to 7 days at 25 °C under extended daylight conditions. The % mortality of the larvae after two days indicated the level of activity.

| Compound | mortality at 0.1 % [%] |
| --- | --- |
| C=C(I)C(C)(C)CCCc1cccc(Oc2ccccc2)c1 [Example 63, 3,3-dimethyl-2-iodo-6-(3-phenoxy-phenyl)-1-hexene] | 80 to 100 |
| CC(C)(COCc1c(F)c(F)c(F)c(F)c1F)C1=CCCC1 [Example 62, 2-(cyclopenten-1-yl)-2-methyl-1-(2,3,4,5,6-pentafluorobenzyloxy)propane] | 80 to 100 |
| CC(C)(COCc1cccc(Oc2ccccc2)c1)C1=CCCCC1 [Example 8, 2-(cyclohexen-1-yl)-2-methyl-1-(3-phenoxybenzyloxy)propane] | 80 to 100 |
